Laboratory results as given in US20250368633A1, “AZEPINE FUSED RING COMPOUND AS RIPK1 INHIBITOR AND USE THEREOF” (ARTIVILA BIOPHARMA, priority 2022, published 2025).

test system: U937 cells; assay: EC50 of necroptosis inhibition in U937 cells (TSZ-induced, CellTiter-Glo); format: cell-based; settings: Homo sapiens, U-937; TSZ (hTNF-α, SM-164, Z-VAD-FMK) 20 hours; 10 concentration points; read-out: EC50 intervals of necroptosis inhibition in U937 cells
Method in brief: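 U937 cells pretreated 15 min with compound (10-point, 1:3 series), then necroptosis induced by TSZ (hTNF-α, SM-164, Z-VAD-FMK) for 20 h at 37 °C. Viability measured as ATP by CellTiter-Glo luminescence; inhibition normalised to untreated and TSZ-only wells, EC50 from four-parameter fit.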

Q: CN1C(=O)[C@@H](NC(=O)C(=O)NCCc2ccccc2)COc2ccc(C#CC3(O)CCOC3)cc21 (stereo partly drawn) [Example 80, N^1-((3S)-7-((3-hydroxytetrahydrofuran-3-yl)ethynyl)-5-methyl-4-oxo-2,3,4,5-tetrahydrobenzo[b][1,4]oxazepin-3-yl)-N^2-phenethyloxalamide] was tested. Which EC50 did it give?
A: < 100 nM

Q: With CN1C(=O)C(NC(=O)C(=O)NCCc2ccccc2)CCc2ccc(C#CC3CCNCC3)cc21 (centres unmarked) [Example 66, N^1-(1-methyl-2-oxo-8-(piperidin-4-ylethynyl)-2,3,4,5-tetrahydro-1H-benzo[b]azepin-3-yl)-N^2-phenethyloxalamide] as the compound, how does the EC50 read?
A: < 100 nM

Q: With CN1C(=O)[C@@H](NC(=O)C(=O)NCCc2cccc(F)c2)COc2ccc(C#CCN3CCC(O)C3)cc21 (mixture of isomers) [Example 113, N^1-(3-fluorophenethyl)-N^2-((3S)-7-(3-(3-hydroxypyrrolidin-1-yl)prop-1-yn-1-yl)-5-methyl-4-oxo-2,3,4,5-tetrahydrobenzo[b][1,4]oxazepin-3-yl)oxalamide] as the compound, how does the EC50 read?
A: < 100 nM

Q: Which EC50 does the source give for CN1CCC(CC#Cc2ccc3c(c2)N(C)C(=O)[C@@H](NC(=O)C(=O)NCCc2ccccc2)CO3)C1=O (mixture of isomers) [Example 82, N^1-((3S)-5-methyl-7-(3-(1-methyl-2-oxopyrrolidin-3-yl)prop-1-yn-1-yl)-4-oxo-2,3,4,5-tetrahydrobenzo[b][1,4]oxazepin-3-yl)-N^2-phenethyloxalamide] here?
A: < 100 nM

Q: How did the EC50 turn out when CN1C(=O)[C@@H](NC(=O)C(=O)NCCc2ccccc2)COc2ccc(C#Cc3cnn(C)c3)cc21 [Example 22, (S)—N^1-(5-methyl-7-((1-methyl-1H-pyrazol-4-yl)ethynyl)-4-oxo-2,3,4,5-tetrahydrobenzo[b][1,4]oxazepin-3-yl)-N^2-phenethyloxalamide] was run?
A: < 100 nM

Q: Which EC50 does the source give for CN1C(=O)[C@@H](NC(=O)C(=O)NCCc2ccccc2)COc2ccc(C#Cc3cnc4cccnn34)cc21 [Example 25, (S)—N^1-(7-(imidazo[1,2-b]pyridazin-3-ylethynyl)-5-methyl-4-oxo-2,3,4,5-tetrahydrobenzo[b][1,4]oxazepin-3-yl)-N^2-phenethyloxalamide] here?
A: < 100 nM

Q: CN1C(=O)[C@@H](NC(=O)C(=O)NCCc2ccccc2)COc2ccc(C#CC3COC3)cc21 [Example 76, (S)—N^1-(5-methyl-7-(oxetan-3-ylethynyl)-4-oxo-2,3,4,5-tetrahydrobenzo[b][1,4]oxazepin-3-yl)-N^2-phenethyloxalamide] was tested. Which EC50 did it give?
A: < 100 nM

Q: How did the EC50 turn out when CN1C(=O)[C@@H](NC(=O)C(=O)NCCc2ccccc2)COc2ccc(C#CCC3(O)COC3)cc21 [Example 79, (S)—N^1-(7-(3-(3-hydroxyoxetan-3-yl)prop-1-yn-1-yl)-5-methyl-4-oxo-2,3,4,5-tetrahydrobenzo[b][1,4]oxazepin-3-yl)-N^2-phenethyloxalamide] was run?
A: < 100 nM

Q: With CN1C(=O)[C@@H](NC(=O)C(=O)NCCc2ccccc2)COc2ccc(C#CCCN)cc21 [Example 50, (S)—N^1-(7-(4-aminobut-1-yn-1-yl)-5-methyl-4-oxo-2,3,4,5-tetrahydrobenzo[b][1,4]oxazepin-3-yl)-N^2-phenethyloxalamide] as the compound, how does the EC50 read?
A: < 100 nM

Q: Which EC50 does the source give for C[C@@H](CNC(=O)C(=O)N[C@H]1COc2ccc(C#CCN3CCOCC3)cc2N(C)C1=O)c1ccccc1 [Example 159, N^1-((S)-5-methyl-7-(3-morpholinoprop-1-yn-1-yl)-4-oxo-2,3,4,5-tetrahydrobenzo[b][1,4]oxazepin-3-yl)-N^2-((R)-2-phenylpropyl)oxalamide] here?
A: < 100 nM

Q: Which EC50 does the source give for CN1C(=O)[C@@H](NC(=O)C(=O)NCc2ccccc2)COc2ccc(C#CCCO)cc21 [Example 32, (S)—N^1-benzyl-N^2-(7-(4-hydroxybut-1-yn-1-yl)-5-methyl-4-oxo-2,3,4,5-tetrahydrobenzo[b][1,4]oxazepin-3-yl)oxalamide] here?
A: < 100 nM

Q: For CN1C(=O)[C@H](NC(=O)C(=O)NCCc2ccccc2)COc2ccc(C#CC3(O)COC3)cc21 [Example 77, (R)—N^1-(7-((3-hydroxyoxetan-3-yl)ethynyl)-5-methyl-4-oxo-2,3,4,5-tetrahydrobenzo[b][1,4]oxazepin-3-yl)-N^2-phenethyloxalamide], which EC50 is on record?
A: < 100 nM

Q: CN1C(=O)[C@@H](NC(=O)C(=O)NCCc2ccccc2F)COc2ccc(C#CCCO)cc21 [Example 33, (S)—N^1-(2-fluorophenethyl)-N^2-(7-(4-hydroxybut-1-yn-1-yl)-5-methyl-4-oxo-2,3,4,5-tetrahydrobenzo[b][1,4]oxazepin-3-yl)oxalamide] was tested. Which EC50 did it give?
A: < 100 nM

Q: How did the EC50 turn out when CC(NC(=O)C(=O)N[C@H]1COc2ccc(C#CCCO)cc2N(C)C1=O)c1ccccc1 (mixture of isomers) [Example 41, N^1-((S)-7-(4-hydroxybut-1-yn-1-yl)-5-methyl-4-oxo-2,3,4,5-tetrahydrobenzo[b][1,4]oxazepin-3-yl)-N^2-(1-phenylethyl)oxalamide] was run?
A: < 100 nM

Q: For CN1C(=O)[C@@H](NC(=O)C(=O)NCCc2ccccc2)COc2ccc(C#CCNC(=O)OC(C)(C)C)cc21 [Example 86, tert-butyl (S)-(3-(5-methyl-4-oxo-3-(2-oxo-2-(phenethylamino)acetamido)-2,3,4,5-tetrahydrobenzo[b][1,4]oxazepin-7-yl)prop-2-yn-1-yl)carbamate], which EC50 is on record?
A: < 100 nM

Q: For C[C@@H](NC(=O)C(=O)N[C@H]1COc2ccc(C#CCN3CCNC(=O)C3)cc2N(C)C1=O)c1ccccc1 [Example 145, N^1-((S)-5-methyl-4-oxo-7-(3-(3-oxopiperazin-1-yl)prop-1-yn-1-yl)-2,3,4,5-tetrahydrobenzo[b][1, 4]oxazepin-3-yl)-N^2-((R)-1-phenylethyl)oxalamide], which EC50 is on record?
A: < 100 nM

Q: For CN1C(=O)[C@@H](NC(=O)C(=O)NCCc2ccccc2)COc2ccc(C#Cc3cccnc3)cc21 [Example 13, (S)—N^1-(5-methyl-4-oxo-7-(pyridin-3-ylethynyl)-2,3,4,5-tetrahydrobenzo[b][1,4]oxazepin-3-yl)-N^2-phenethyloxalamide], which EC50 is on record?
A: < 100 nM

Q: How did the EC50 turn out when C[C@@H](NC(=O)C(=O)N[C@H]1COc2ccc(C#CCN(C)C)cc2N(C)C1=O)c1ccccc1 [Example 146, N^1-((S)-7-(3-(dimethylamino)prop-1-yn-1-yl)-5-methyl-4-oxo-2,3,4,5-tetrahydrobenzo[b][1,4]oxazepin-3-yl)-N^2-((R)-1-phenylethyl)oxalamide] was run?
A: < 100 nM

Q: For C/C(C#Cc1ccc2c(c1)N(C)C(=O)[C@@H](NC(=O)C(=O)NCCc1ccccc1)CO2)=C/CO [Example 45, (S,Z)-N^1-(7-(5-hydroxy-3-methylpent-3-en-1-yn-1-yl)-5-methyl-4-oxo-2,3,4,5-tetrahydrobenzo[b][1,4]oxazepin-3-yl)-N^2-phenethyloxalamide], which EC50 is on record?
A: < 100 nM

Q: CN1C(=O)[C@@H](NC(=O)C(=O)NCc2ccccc2)COc2ccc(C#CCN3CCOCC3)cc21 [Example 106, (S)—N^1-benzyl-N^2-(5-methyl-7-(3-morpholinoprop-1-yn-1-yl)-4-oxo-2,3,4,5-tetrahydrobenzo[b][1, 4]oxazepin-3-yl)oxalamide] was tested. Which EC50 did it give?
A: < 100 nM

Q: C[C@@H](NC(=O)C(=O)N[C@H]1COc2ccc(C#CCN3CCC(O)CC3)cc2N(C)C1=O)c1ccccc1 [Example 138, N^1-((S)-7-(3-(4-hydroxypiperidin-1-yl)prop-1-yn-1-yl)-5-methyl-4-oxo-2,3,4,5-tetrahydrobenzo[b][1,4]oxazepin-3-yl)-N^2-((R)-1-phenylethyl)oxalamide] was tested. Which EC50 did it give?
A: < 100 nM

Q: With CN1C(=O)[C@@H](NC(=O)C(=O)NCCc2cccc(F)c2)COc2ccc(C#CC3(O)COC3)cc21 [Example 110, (S)—N^1-(3-fluorophenethyl)-N^2-(7-((3-hydroxyoxetan-3-yl)ethynyl)-5-methyl-4-oxo-2,3,4,5-tetrahydrobenzo[b][1,4]oxazepin-3-yl)oxalamide] as the compound, how does the EC50 read?
A: < 100 nM

Q: Which EC50 does the source give for C[C@H](CNC(=O)C(=O)N[C@H]1COc2ccc(C#CCCO)cc2N(C)C1=O)c1ccccc1 [Example 156, N^1-((S)-7-(4-hydroxybut-1-yn-1-yl)-5-methyl-4-oxo-2,3,4,5-tetrahydrobenzo[b][1,4]oxazepin-3-yl)-N^2-((S)-2-phenylpropyl)oxalamide] here?
A: < 100 nM

Q: For CC#Cc1ccc2c(c1)N(C)C(=O)[C@@H](NC(=O)C(=O)NCCc1ccccc1)CO2 [Example 19, (S)—N^1-(5-methyl-4-oxo-7-(prop-1-yn-1-yl)-2,3,4,5-tetrahydrobenzo[b][1,4]oxazepin-3-yl)-N^2-phenethyloxalamide], which EC50 is on record?
A: < 100 nM

Q: CN1C(=O)C(NC(=O)C(=O)NCCc2ccccc2)CCc2ccc(C#CCCO)cc21 (centres unmarked) [Example 65, N^1-(8-(4-hydroxybut-1-yn-1-yl)-1-methyl-2-oxo-2,3,4,5-tetrahydro-1H-benzo[b]azepin-3-yl)-N^2-phenethyloxalamide] was tested. Which EC50 did it give?
A: < 100 nM

Q: Which EC50 does the source give for C[C@@H](NC(=O)C(=O)N[C@H]1COc2ccc(C#CC3CN(CC#N)C3)cc2N(C)C1=O)c1ccccc1 [Example 148, N^1-((S)-7-((1-(cyanomethyl)azetidin-3-yl)ethynyl)-5-methyl-4-oxo-2,3,4,5-tetrahydrobenzo[b][1, 4]oxazepin-3-yl)-N^2-((R)-1-phenylethyl)oxalamide] here?
A: < 100 nM

Q: With CN1C(=O)[C@@H](NC(=O)C(=O)NCCc2cccc(F)c2)COc2ccc(C#Cc3cccnc3)cc21 [Example 117, (S)—N^1-(3-fluorophenethyl)-N^2-(5-methyl-4-oxo-7-(pyridin-3-ylethynyl)-2,3,4,5-tetrahydrobenzo[b][1,4]oxazepin-3-yl)oxalamide] as the compound, how does the EC50 read?
A: < 100 nM

Q: How did the EC50 turn out when CN1C(=O)[C@@H](NC(=O)C(=O)NCCc2cc(F)cc(F)c2)COc2ccc(C#CCCO)cc21 [Example 36, (S)—N^1-(3,5-difluorophenethyl)-N^2-(7-(4-hydroxybut-1-yn-1-yl)-5-methyl-4-oxo-2,3,4,5-tetrahydrobenzo[b][1,4]oxazepin-3-yl)oxalamide] was run?
A: < 100 nM

Q: With CN1C(=O)C(NC(=O)C(=O)NCCc2ccccc2)CCc2ccc(C#CC3CC3)cc21 (centres unmarked) [Example 62, N^1-(8-(cyclopropylethynyl)-1-methyl-2-oxo-2,3,4,5-tetrahydro-1H-benzo[b]azepin-3-yl)-N^2-phenethyloxalamide] as the compound, how does the EC50 read?
A: < 100 nM
